Data on one molecule can be found in patent US20230129137A1, “USE OF TT-10-LOADED NANOPARTICLES FOR CARDIAC REPAIR” (THE UAB RESEARCH FOUNDATION, priority 2021, published 2023).

Entries after “also recorded” stand apart in the source; their conditions may differ.

In assay [1] the test system is Yap. As to the kind of experiment: nuclear Yap in hiPSC-CMs (immunofluorescence). The class given is cell-based, human. Conditions: 10 μM TT-10. On the procedure:
(§1) FIGS. 2A-2B show TT-10 enhanced survival and nuclear Yap levels in cultured hiPSC-CMs. (FIG. 2A) Apoptosis was evaluated via TUNEL staining and quantified as the percentage of TUNEL-positive cells. (FIG. 2B) hiPSC-CMs were immunofluorescently costained for Yap, and the proportion of cells with Yap-positive nuclei is presented as a percentage. Scale bar: 20 μm. All experiments were repeated 5 times. *P<0.01, Student's t test.
(§2) The effect of TT-10 (FIG. 1A) on cardiomyocyte cell cycle activity and proliferation was determined by culturing human induced pluripotent stem cell-derived cardiomyocytes (hiPSC-CMs) in varying concentrations of TT-10 (0, 2 μM, 10 μM, 20 μM or 100 μM) for 48 hours and then evaluating the presence of markers for cell proliferation (Ki67 expression, FIG. 1B), S phase (BrdU incorporation, FIG. 1C), and M phase (histone 3 phosphorylation [PH3], FIG. 1D) of the cell cycle and for cytokinesis (Aurora B, FIG. 1E). […] The effect of TT-10 on YAP pathway activity was also evaluated via Western blot (FIG. 7): total Yap levels in hiPSC-CMs treated with or without TT-10 were similar, but phosphorylated Yap (p-Yap) was less abundant in TT-10-treated cells.
Immunofluorescence. […] After staining, analyses were conducted with a fluorescence microscope.

The subject of assay [2] is hiPSC-CMs. Description: cell cycle activity and proliferation markers in cultured hiPSC-CMs (immunofluorescence). It is filed as cell-based, human. Conditions: TT-10 0, 2, 10, 20 or 100 μM, 48 hours. As for the experimental part: FIGS. 1A-1E show TT-10 increased cell cycle activity and proliferation in cultured human pluripotent stem sell derived cardiomyocytes (hiPSC-CMs). (FIG. 1A) TT-10 (C11H10FN3OS2; molecular weight, 283.34 Da) contains 4 C═C, 1 C═N, and 1 C═O double bond. Maximum UV/Vis absorbance is approximately 200 nm. (FIGS. 1B-1E) hiPSC-CMs were cultured under standard conditions (—) or treated with varying concentrations of TT-10 (2 μM, 10 μM, 20 μM, or 100 μM) for 48 hours and immunofluorescently stained for the human isoform of cardiac troponin T (hcTnT). Nuclei were identified by staining with 4′,6′-diamidinio-2-phenylindole (DAPI) or with DAPI and Nkx2.5 antibodies. (FIG. 1B) Proliferation was evaluated via immunofluorescence costaining for antigen KI 67 (Ki67) and quantified as the percentage of Ki67-positive cells. (FIG. 1C) hiPSC-CMs in the S phase of the cell cycle were identified via immunofluorescence costaining for bromodeoxyuridine (BrdU) incorporation and quantified as the percentage of BrdU-positive cells. (FIG. 1D) hiPSC-CMs in the M phase of the cell cycle were identified via immunofluorescence costaining for histone 3 phosphorylation (PH3) and quantified as the percentage of PH3-positive cells. (FIG. 1E) hiPSC-CMs undergoing cytokinesis were identified via immunofluorescence costaining for Aurora B (AuB) and quantified as the percentage of AuB-positive cells. Scale bar: 20 μm. All experiments were repeated 5 times. […], 1-way ANOVA with Tukey's correction.
FIGS. 8A-8B show TT-10-NPs promoted proliferation in cultured hiPSC-CMs. hiPSC-CMs were cultured for 48 hours with or without 1 mg/mL coumarin-6-loaded TT-10-NPs (green); then, the cells were immunofluorescently stained for the human isoform of cardiac troponin I (hcTnI, gray), and nuclei were identified via DAPI staining (blue). Internalized NPs are identified with an arrow. Scale bar: 20 μm. (FIG. 8A) Proliferation was evaluated via immunofluorescence costaining for Ki67 and quantified as the percentage of Ki67-positive cells. (FIG. 8B) hiPSC-CMs in the M-phase of the cell cycle were identified via immunofluorescence costaining for PH3 and quantified as the percentage of PH3-positive cells. *P<0.01, Student's t-test; n=5 experiments.
The effect of TT-10 (FIG. 1A) on cardiomyocyte cell cycle activity and proliferation was determined by culturing human induced pluripotent stem cell-derived cardiomyocytes (hiPSC-CMs) in varying concentrations of TT-10 (0, 2 μM, 10 μM, 20 μM or 100 μM) for 48 hours and then evaluating the presence of markers for cell proliferation (Ki67 expression, FIG. 1B), S phase (BrdU incorporation, FIG. 1C), and M phase (histone 3 phosphorylation [PH3], FIG. 1D) of the cell cycle and for cytokinesis (Aurora B, FIG. 1E). […]

Assay [3] concerns hiPSC-CMs. Description: apoptosis of hiPSC-CMs by TUNEL staining. The class given is cell-based, human. Conditions: 10 μM TT-10. As for the experimental part:
as §1, §2
TUNEL. TUNEL staining was performed with an in situ cell death detection kit (Roche). […] Apoptosis was quantified as the proportion of cells that were TUNEL positive.

For assay [4], the system named is cardiomyocytes. Conditions: cited from earlier work.
Assay [5] relates to YAP signaling pathway. As to the kind of experiment: YAP and phosphorylated YAP abundance by Western blot in hiPSC-CMs. The class given is cell-based, human. The conditions noted are these: 10 μM TT-10, 48 hours, with vs without TT-10. On the procedure:
as §2
Western blot. hiPSC-CMs were lysed with M-PER Mammalian Protein Extraction Reagent (Thermo Fisher Scientific) supplemented with Halt Protease and Phosphatase Inhibitor Cocktail (Thermo Fisher Scientific). Extracted protein was quantified by BCA protein assay kit (Thermo Fisher Scientific) and denatured by heating at 95° C. for 10 minutes. Equal quantity of protein were loaded and separated by 4%-15% precast SDS-PAGE gels (Bio-Rad), and then transferred onto a polyvinylidene difluoride membrane (Bio-Rad). […] Protein signals were imaged with a Bio-Rad ChemiDoc System and analyzed by ImageJ. […]

For assay [6], the system named is mouse MI. The conditions noted are these: intraperitoneal injections of TT-10, mice after MI; cited from earlier work.

For the molecule `C=CCNc1nc(N)c(C(=O)c2ccc(F)s2)s1` [TT-10, (2-(allylamino)-4-aminothiazol-5-yl)(5-fluorothiophen-2-yl)methanone], the “proportion of hiPSC-CMs with Yap-positive nuclei” value in assay [1] is “significantly increased”. Further, in assay [2], the “proportion of cells displaying Aurora B (cytokinesis)” value is on record as “peaked at 10 to 20 μM TT-10”, the “proportion of cells displaying BrdU incorporation (S phase)” value is “peaked at 10 to 20 μM TT-10”, the “proportion of cells displaying Ki67 (cell proliferation)” value is “peaked at 10 to 20 μM TT-10” and the “proportion of cells displaying histone 3 phosphorylation PH3 (M phase)” value was “peaked at 10 to 20 μM TT-10”. Moreover, in assay [3], the “hiPSC-CM apoptosis (TUNEL staining)” value is reported as “significantly reduced”. Moreover, the “cardiomyocyte survival and proliferation” value in assay [4] is reported as “promoted”. In addition, in assay [5], the “phosphorylated Yap (p-Yap) abundance (Western blot)” value was “less abundant” and the “total Yap levels (Western blot)” value is reported as “similar”. Further, in assay [6], the “cardiac function at later time points” value was “did not prevent progressive declines”, the “cardiomyocyte cell cycle activity” value was “promoted”, the infarct size entry is on record as “declines in infarct size; also recorded: reduced” and the “measures of cardiac function vs delivery vehicle” value was “significantly better”.
